Data reported in patent publication US6417167B1, “Lyophilized compositions containing shingoglycolipid and process for preparing them” (Kirin Beer Kabushiki Kaisha, priority 1997, dated 2002).

Assays:
Format in all cases: physicochemical
[1] = Excipient appropriate to lyophilization 2: re-solubility after storage; conditions: lyophilized, Polysorbate 20 0.5%, 25° C.
Method: The lyophilized preparations having mannitol and sucrose added thereto were observed on their variation with the passage of time.
(§1) First, Polysorbate 20 was dissolved in distilled water in a concentration of 0.5%, and the saccharides were dissolved in such concentrations as listed in Table 7. Next, 20 mg of the active component (KRN7000) was weighed and stirred in 100 ml of the solvents in a heated bath to 80° C. for 20 minutes in order to form a solution. After cooling with running water, the mixture was filtered through a 0.22 μm filter, and transparent colorless glass vials having a volume of 5 ml were charged with a 1 ml portion of each of a variety of solutions thus obtained and subjected to lyophilization. Lyophilization was carried out under the condition of preliminary freezing at −40° C. for 2 hours and drying at −20° C. for 24 hours, 10° C. for 12 hours, and finally at 25° C. for 5 hours to give the lyophilized product. The degree of vacuum was set at 0.1 Torr or less during drying step.
After the lyophilization step, the lyophilized composition was stored at 25° C. After storage for 1 month, the lyophilized composition was reconstituted in 1 ml of distilled water for injection, left standing for 30 minutes, and solubility was judged when the foams generated on reconstitution disappeared. The samples judged in solution were further stored, and judged again of their solubility after 4 months.
(§2) The solubility was judged by cleaning the outside of the vial and placing it beneath the white light source in a darkroom for observation with naked eye at the position of a luminous intensity of about 5,000 lux. When the sample was clear with no precipitates, it was judged that the active component was dissolved.

[2] = Lyophilized preparations with Polysorbate 20 alone: re-solubility immediately after lyophilization; conditions: KRN7000 200 μg/ml, reconstituted in 1 ml distilled water for injection
Method: as §1, with “Next,” for “First, Polysorbate 20 was dissolved in distilled water in a concentration of 0.5%, and the saccharides were dissolved in such concentrations as listed in Table 7. Next,”, “Polysorbate solutions having a variety of concentrations” for “solvents”, “solutions” for “solutions thus obtained”, “lyophilizaiton.” for “lyophilization.”
After the lyophilization step, the lyophilized composition was reconstituted in 1 ml of distilled water for injection, left standing for 30 minutes, and solubility was judged when the foams generated on reconstituiton disappeared.
as §2

[3] = Examination of optimal formulation: re-solubility after storage; conditions: lyophilized, Polysorbate 20 0.5%
Method: as §1, with “and sucrose and histidine or sodium deoxycholate” for “and the saccharides were dissolved”, “concentrations” for “concentrations as”, “listed on” for “listed in”, “Table 11.” for “Table 7.”
After the lyophilization step, the lyophilized composition thus obtained was stored at 25° C. or 50° C. After storage at 25° C. for 2 months or at 50° C. for 2 weeks, the lyophilized composition was reconstituted in 1 ml of distilled water for injection, left standing for 30 minutes, and solubility was judged when the foams generated on reconstitution disappeared. The samples judged to be solution after storage at 25° C. for 2 months were further stored, and judged again of their solubility after storage for 4 months.
as §2

CCCCCCCCCCCCCCCCCCCCCCCCCC(=O)N[C@@H](CO[C@H]1O[C@H](CO)[C@H](O)[C@H](O)[C@H]1O)[C@H](O)[C@H](O)CCCCCCCCCCCCCC [KRN7000, (2S,3S,4R)-1-(α-D-galactopyranosyloxy)-2-hexacosanoylamino-3,4-octadecanediol]
Re-solubility after storage (by naked eye) ([1]; Mannitol 10%, 1 month): − (dissolved)
Re-solubility after storage (by naked eye) ([1]; Mannitol 10%, 4 months): + (not dissolved (or deposited))
Re-solubility after storage (by naked eye) ([1]; Sucrose 9.6%, 1 month): − (dissolved)
Re-solubility after storage (by naked eye) ([1]; Sucrose 9.6%, 4 months): + (not dissolved (or deposited))
Re-solubility immediately after lyophilization (by naked eye) ([2]; Polysorbate 20 0.5%): + (not dissolved (or deposited))
Re-solubility immediately after lyophilization (by naked eye) ([2]; Polysorbate 20 1.0%): + (not dissolved (or deposited))
Re-solubility immediately after lyophilization (by naked eye) ([2]; Polysorbate 20 2.0%): + (not dissolved (or deposited))
Re-solubility after storage (by naked eye) ([3]; Sucrose 1.1%, Histidine, 4%, 50° C., 2 weeks): + (not dissolved (or deposited))
Re-solubility after storage (by naked eye) ([3]; Sucrose 3.1%, Histidine, 3%, 50° C., 2 weeks): − (dissolved)
Re-solubility after storage (by naked eye) ([3]; Sucrose 3.2%, Histidine, 2%, 50° C., 2 weeks): − (dissolved)
Re-solubility after storage (by naked eye) ([3]; Sucrose 4.8%, Sodium deoxycholate, 0.2%, 25° C., 2 months): + (not dissolved (or deposited))
Re-solubility after storage (by naked eye) ([3]; Sucrose 4.8%, Sodium deoxycholate, 0.5%, 25° C., 2 months): − (dissolved)
Re-solubility after storage (by naked eye) ([3]; Sucrose 4.8%, Sodium deoxycholate, 0.5%, 25° C., 4 months): − (dissolved)
Re-solubility after storage (by naked eye) ([3]; Sucrose 4.8%, Sodium deoxycholate, 1%, 25° C., 2 months): − (dissolved)
Re-solubility after storage (by naked eye) ([3]; Sucrose 4.8%, Sodium deoxycholate, 1%, 25° C., 4 months): − (dissolved)
Re-solubility after storage (by naked eye) ([3]; Sucrose 4.8%, Sodium deoxycholate, 2%, 25° C., 2 months): − (dissolved)
Re-solubility after storage (by naked eye) ([3]; Sucrose 4.8%, Sodium deoxycholate, 2%, 25° C., 4 months): − (dissolved)
Re-solubility after storage (by naked eye) ([3]; Sucrose 5.0%, Histidine, 2%, 50° C., 2 weeks): − (dissolved)
Re-solubility after storage (by naked eye) ([3]; Sucrose 5.1%, Histidine, 1%, 50° C., 2 weeks): − (dissolved)
Re-solubility after storage (by naked eye) ([3]; Sucrose 6.9%, Histidine, 1%, 50° C., 2 weeks): − (dissolved)
Re-solubility after storage (by naked eye) ([3]; Sucrose 7.9%, Histidine, 0.5%, 50° C., 2 weeks): + (not dissolved (or deposited))
Re-solubility after storage (by naked eye) ([3]; Sucrose 9.6%, Histidine, 2%, 50° C., 2 weeks): − (dissolved)
Re-solubility after storage (by naked eye) ([3]; Sucrose 9.6%, Sodium deoxycholate, 0.2%, 25° C., 2 months): + (not dissolved (or deposited))
Re-solubility after storage (by naked eye) ([3]; Sucrose 9.6%, Sodium deoxycholate, 0.5%, 25° C., 2 months): − (dissolved)
Re-solubility after storage (by naked eye) ([3]; Sucrose 9.6%, Sodium deoxycholate, 0.5%, 25° C., 4 months): − (dissolved)
Re-solubility after storage (by naked eye) ([3]; Sucrose 9.6%, Sodium deoxycholate, 1%, 25° C., 2 months): − (dissolved)
Re-solubility after storage (by naked eye) ([3]; Sucrose 9.6%, Sodium deoxycholate, 1%, 25° C., 4 months): − (dissolved)
Re-solubility after storage (by naked eye) ([3]; Sucrose 9.6%, Sodium deoxycholate, 2%, 25° C., 2 months): − (dissolved)
Re-solubility after storage (by naked eye) ([3]; Sucrose 9.6%, Sodium deoxycholate, 2%, 25° C., 4 months): − (dissolved)
Re-solubility after storage (by naked eye) ([3]; Sucrose 19.2%, Sodium deoxycholate, 0.1%, 25° C., 2 months): + (not dissolved (or deposited))
Re-solubility after storage (by naked eye) ([3]; Sucrose 19.2%, Sodium deoxycholate, 0.2%, 25° C., 2 months): + (not dissolved (or deposited))
Re-solubility after storage (by naked eye) ([3]; Sucrose 19.2%, Sodium deoxycholate, 0.5%, 25° C., 2 months): + (not dissolved (or deposited))
Re-solubility after storage (by naked eye) ([3]; Sucrose 19.2%, Sodium deoxycholate, 1%, 25° C., 2 months): + (not dissolved (or deposited))
Re-solubility after storage (by naked eye) ([3]; Sucrose 19.2%, Sodium deoxycholate, 2%, 25° C., 2 months): + (not dissolved (or deposited))
